The NIST ThermoML archive (doi:10.1021/je800046k)

Assay: xn = mol fraction of the nth substance listed
Details: for surface tension liquid-gas: Pendant drop shape; for mass density: 101 kPa, Liquid

CC(=O)OCC(C)C [2-methylpropyl ethanoate] + Cc1cc(C)cc(C)c1
Details | mass density [kg/m3] | surface tension liquid-gas [mN/m]
298.15 K, x1 = 0.051 | 861.07 | 27.76
298.15 K, x1 = 0.1006 | 861.07 | 27.49
298.15 K, x1 = 0.1506 | 861.09 | 27.2
298.15 K, x1 = 0.2004 | 861.14 | 26.91
298.15 K, x1 = 0.2498 | 861.2 | 26.62
298.15 K, x1 = 0.3003 | 861.29 | 26.31
298.15 K, x1 = 0.35 | 861.41 | 26.04
298.15 K, x1 = 0.4004 | 861.56 | 25.77
298.15 K, x1 = 0.4502 | 861.74 | 25.49
298.15 K, x1 = 0.5004 | 861.94 | 25.23
298.15 K, x1 = 0.5499 | 862.17 | 24.99
298.15 K, x1 = 0.5996 | 862.44 | 24.75
298.15 K, x1 = 0.6494 | 862.74 | 24.52
298.15 K, x1 = 0.6998 | 863.09 | 24.31
298.15 K, x1 = 0.7498 | 863.46 | 24.1
298.15 K, x1 = 0.8007 | 863.89 | 23.91
298.15 K, x1 = 0.8502 | 864.36 | 23.7
298.15 K, x1 = 0.8998 | 864.88 | 23.55
298.15 K, x1 = 0.9491 | 865.43 | 23.37
298.15 K, x1 = 1 | 866.06 | 23.15
308.15 K, x1 = 0.0513 | 852.75 | 26.89
308.15 K, x1 = 0.0999 | 852.66 | 26.61
308.15 K, x1 = 0.1503 | 852.57 | 26.3
308.15 K, x1 = 0.2007 | 852.51 | 26
308.15 K, x1 = 0.2505 | 852.48 | 25.7
308.15 K, x1 = 0.3013 | 852.45 | 25.39
308.15 K, x1 = 0.35 | 852.46 | 25.1
308.15 K, x1 = 0.4002 | 852.49 | 24.82
308.15 K, x1 = 0.4506 | 852.56 | 24.55
308.15 K, x1 = 0.5 | 852.64 | 24.29
308.15 K, x1 = 0.5505 | 852.78 | 24.03
308.15 K, x1 = 0.5997 | 852.91 | 23.77
308.15 K, x1 = 0.6503 | 853.09 | 23.53
308.15 K, x1 = 0.6995 | 853.32 | 23.32
308.15 K, x1 = 0.75 | 853.57 | 23.09
308.15 K, x1 = 0.8002 | 853.86 | 22.89
308.15 K, x1 = 0.8502 | 854.21 | 22.7
308.15 K, x1 = 0.8997 | 854.61 | 22.52
308.15 K, x1 = 0.9498 | 855.03 | 22.35
308.15 K, x1 = 1 | 855.51 | 22.16
313.15 K, x1 = 0.0494 | 848.6 | 26.45
313.15 K, x1 = 0.1 | 848.45 | 26.14
313.15 K, x1 = 0.1493 | 848.33 | 25.81
313.15 K, x1 = 0.2002 | 848.2 | 25.52
313.15 K, x1 = 0.2499 | 848.1 | 25.2
313.15 K, x1 = 0.299 | 848.03 | 24.92
313.15 K, x1 = 0.3492 | 847.98 | 24.62
313.15 K, x1 = 0.3988 | 847.95 | 24.33
313.15 K, x1 = 0.4492 | 847.96 | 24.06
313.15 K, x1 = 0.5003 | 847.98 | 23.78
313.15 K, x1 = 0.5518 | 848.05 | 23.51
313.15 K, x1 = 0.5992 | 848.13 | 23.28
313.15 K, x1 = 0.6503 | 848.26 | 23.02
313.15 K, x1 = 0.6995 | 848.41 | 22.78
313.15 K, x1 = 0.7512 | 848.61 | 22.56
313.15 K, x1 = 0.8005 | 848.85 | 22.35
313.15 K, x1 = 0.8499 | 849.13 | 22.14
313.15 K, x1 = 0.9002 | 849.43 | 21.98
313.15 K, x1 = 0.9504 | 849.8 | 21.81
313.15 K, x1 = 1 | 850.16 | 21.64

Cc1ccc(C)c(C)c1 [1,2,4-trimethylbenzene] + CC(=O)OC(C)C
Details | mass density [kg/m3] | surface tension liquid-gas [mN/m]
298.15 K, x2 = 0 | 871.71 | 29.3
298.15 K, x2 = 0.0492 | 871.44 | 28.8
298.15 K, x2 = 0.101 | 871.17 | 28.25
298.15 K, x2 = 0.1507 | 870.9 | 27.69
298.15 K, x2 = 0.1995 | 870.64 | 27.13
298.15 K, x2 = 0.251 | 870.36 | 26.6
298.15 K, x2 = 0.3006 | 870.1 | 26.09
298.15 K, x2 = 0.3513 | 869.83 | 25.6
298.15 K, x2 = 0.4008 | 869.56 | 25.15
298.15 K, x2 = 0.45 | 869.3 | 24.75
298.15 K, x2 = 0.4998 | 869.03 | 24.34
298.15 K, x2 = 0.5498 | 868.76 | 23.99
298.15 K, x2 = 0.6007 | 868.49 | 23.64
298.15 K, x2 = 0.6492 | 868.23 | 23.33
298.15 K, x2 = 0.7004 | 867.95 | 23.05
298.15 K, x2 = 0.7501 | 867.68 | 22.78
298.15 K, x2 = 0.7968 | 867.42 | 22.56
298.15 K, x2 = 0.8495 | 867.12 | 22.34
298.15 K, x2 = 0.8995 | 866.84 | 22.15
298.15 K, x2 = 0.9492 | 866.55 | 21.99
308.15 K, x2 = 0 | 863.68 | 28.24
308.15 K, x2 = 0.0488 | 863.27 | 27.69
308.15 K, x2 = 0.0999 | 862.84 | 27.12
308.15 K, x2 = 0.1499 | 862.42 | 26.56
308.15 K, x2 = 0.2002 | 861.99 | 26
308.15 K, x2 = 0.2504 | 861.56 | 25.48
308.15 K, x2 = 0.3001 | 861.13 | 24.96
308.15 K, x2 = 0.3519 | 860.67 | 24.47
308.15 K, x2 = 0.4 | 860.24 | 24.04
308.15 K, x2 = 0.45 | 859.79 | 23.62
308.15 K, x2 = 0.4964 | 859.37 | 23.24
308.15 K, x2 = 0.5495 | 858.89 | 22.86
308.15 K, x2 = 0.6008 | 858.42 | 22.51
308.15 K, x2 = 0.6499 | 857.96 | 22.21
308.15 K, x2 = 0.7004 | 857.49 | 21.88
308.15 K, x2 = 0.7494 | 857.03 | 21.67
308.15 K, x2 = 0.7986 | 856.55 | 21.43
308.15 K, x2 = 0.85 | 856.05 | 21.2
308.15 K, x2 = 0.8997 | 855.56 | 21.05
308.15 K, x2 = 0.9498 | 855.05 | 20.89
313.15 K, x2 = 0 | 859.58 | 27.71
313.15 K, x2 = 0.0494 | 859.1 | 27.14
313.15 K, x2 = 0.0983 | 858.61 | 26.56
313.15 K, x2 = 0.1504 | 858.09 | 26
313.15 K, x2 = 0.1999 | 857.59 | 25.44
313.15 K, x2 = 0.2506 | 857.07 | 24.93
313.15 K, x2 = 0.3004 | 856.55 | 24.41
313.15 K, x2 = 0.3508 | 856.02 | 23.92
313.15 K, x2 = 0.3995 | 855.5 | 23.51
313.15 K, x2 = 0.4493 | 854.97 | 23.08
313.15 K, x2 = 0.4992 | 854.43 | 22.65
313.15 K, x2 = 0.5492 | 853.88 | 22.29
313.15 K, x2 = 0.6 | 853.32 | 21.94
313.15 K, x2 = 0.6493 | 852.77 | 21.65
313.15 K, x2 = 0.6995 | 852.2 | 21.33
313.15 K, x2 = 0.7501 | 851.62 | 21.09
313.15 K, x2 = 0.8 | 851.04 | 20.88
313.15 K, x2 = 0.8504 | 850.44 | 20.65
313.15 K, x2 = 0.9004 | 849.84 | 20.52
313.15 K, x2 = 0.9478 | 849.26 | 20.37
